Test results taken from the supplement of paper PMC10331698.
± gives the standard deviation of the averaged measurements.

Key:
Test in all cases: level (log10 ratio to DMSO vehicle control); higher = higher biomarker level / cell amount than vehicle control
[1] = compound: O=C(O)CCC(F)(C(F)(F)F)C(F)(F)F [4,4-bis(Trifluoromethyl)-4-fluoropropanoic acid] (in DMSO)
Description: (§1)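 BioMAP Diversity Plus panel of 12 human primary cell co-culture systems (3C, 4H, LPS, SAg, BT, BF4T, BE3C, CASM3C, HDF3CGF, KF3CT, MyoF, Mphg). Compounds were added 1 h before stimulation and left for 24 h (MyoF 48 h; BT 72 h for soluble read-outs or 6 d for IgG). Biomarkers were read by ELISA, cytotoxicity by SRB, PBMC viability and proliferation by Alamar Blue. Each well value was divided by the mean of 8 DMSO control wells on the same plate and log10 transformed; duplicate blinded samples were tested at 4 concentrations.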

[2] = compound: CCOC(=O)CC(=O)C(F)(F)C(F)(F)F [Ethyl pentafluoropropionyl acetate] (in DMSO)
Description: as §1

[3] = compound: O=C(O)C(F)(OC(F)(F)C(F)(F)C(F)(F)F)C(F)(F)F [Ammonium perfluoro-2-methyl-3-oxahexanoate] (in Water)
Description: as §1

[4] = compound: O=S(=O)(O)C(F)(F)C(F)(F)OC(F)(F)C(F)(F)F [Perfluoro(2-ethoxyethane)sulfonic acid] (in DMSO)
Description: as §1

[5] = compound: O=S(=O)(O)CCC(F)(F)C(F)(F)C(F)(F)C(F)(F)C(F)(F)C(F)(F)C(F)(F)C(F)(F)F [8:2 Fluorotelomer sulfonic acid] (in DMSO)
Description: as §1

[6] = compound: O=C(O)C(F)(F)C(F)(F)C(F)(F)OC(F)(F)F [Perfluoro(4-methoxybutanoic) acid] (in DMSO)
Description: as §1

Test System | level (log10) ([1]; 6700 nM) | level (log10) ([1]; 20000 nM) | level (log10) ([1]; 60000 nM) | level (log10) ([2]; 6700 nM) | level (log10) ([2]; 20000 nM) | level (log10) ([2]; 60000 nM) | level (log10) ([3]; 6700 nM) | level (log10) ([3]; 20000 nM) | level (log10) ([3]; 60000 nM) | level (log10) ([4]; 6700 nM) | level (log10) ([4]; 20000 nM) | level (log10) ([4]; 60000 nM) | level (log10) ([5]; 6700 nM) | level (log10) ([5]; 20000 nM) | level (log10) ([5]; 60000 nM) | level (log10) ([6]; 6700 nM) | level (log10) ([6]; 20000 nM) | level (log10) ([6]; 60000 nM)
KF3CT:CXCL8/IL-8 | -0.023 ± 0.0028 | -0.0105 ± 0.00071 | -0.0115 ± 0.013 | -0.012 ± 0.018 | -0.0155 ± 0.0021 | -0.0005 ± 0.029 | 0.0175 ± 0.036 | 0.0135 ± 0.00071 | 0.0165 ± 0.0092 | 0.0305 ± 0.016 | 0.0045 ± 0.022 | 0.036 ± 0.016 | 0.016 ± 0.038 | -0.03 ± 0.023 | -0.131 ± 0.036 | 0.006 ± 0.017 | 0.012 ± 0.0085 | 0.014 ± 0.0099
KF3CT:CXCL9/MIG | 0.01 ± 0.011 | 0.0005 ± 0.0078 | 0.006 ± 0.016 | 0.002 ± 0.0028 | 0.0015 ± 0.0078 | -0.0025 ± 0.0064 | -0.007 ± 0.011 | 0.0025 ± 0.00071 | 0.0005 ± 0.0021 | 0.0105 ± 0.0064 | -0.0015 ± 0.012 | 0.0155 ± 0.0021 | 0.005 ± 0.017 | 0.003 ± 0.0099 | 0.01 ± 0.0057 | 0.0195 ± 0.0021 | 0.0075 ± 0.0092 | 0.016 ± 0.018
KF3CT:CXCL10/IP-10 | -0.0055 ± 0.0021 | -0.0005 ± 0.00071 | -0.0005 ± 0.0064 | -0.002 ± 0.013 | -0.009 ± 0.0057 | -0.009 ± 0.0071 | -0.017 ± 0.0085 | 0.004 ± 0.0057 | 0.005 ± 0.0042 | 0.0025 ± 0.013 | -0.0075 ± 0.011 | -0.009 | -0.015 ± 0.0028 | -0.044 ± 0.0042 | -0.0495 ± 0.00071 | 0.002 ± 0.011 | -0.0025 ± 0.0035 | 0.006 ± 0.0099
KF3CT:IL-1alpha | -0.008 ± 0.021 | -0.0105 ± 0.0064 | -0.0345 ± 0.043 | -0.021 ± 0.011 | -0.0345 ± 0.022 | -0.001 ± 0.031 | -0.001 ± 0.0071 | 0.011 ± 0.0014 | -0.0355 ± 0.044 | 0.0005 ± 0.0064 | -0.013 ± 0.025 | 0.0045 ± 0.05 | -0.041 ± 0.027 | -0.137 ± 0.033 | -0.0655 ± 0.046 | -0.003 ± 0.0099 | -0.015 ± 0.027 | 0 ± 0.021
KF3CT:MMP-9 | -0.026 ± 0.025 | -0.0195 ± 0.019 | -0.008 ± 0.0085 | -0.0165 ± 0.013 | -0.0005 ± 0.012 | -0.011 ± 0.0099 | -0.008 ± 0.011 | 0.0415 ± 0.026 | 0.0695 ± 0.0035 | 0.009 ± 0.0085 | 0.036 ± 0.016 | 0.0515 ± 0.00071 | -0.009 ± 0.0014 | 0.0165 ± 0.0078 | -0.0335 ± 0.018 | 0.001 ± 0.0057 | 0.0055 ± 0.0092 | 0.0205 ± 0.013
KF3CT:PAI-I | -0.0035 ± 0.00071 | -0.0165 ± 0.0092 | 0.003 ± 0.0071 | -0.02 ± 0.023 | -0.01 ± 0.035 | -0.0055 ± 0.026 | -0.0455 ± 0.012 | -0.0695 ± 0.0078 | -0.054 ± 0.02 | -0.01 | -0.0145 ± 0.0078 | -0.009 ± 0.013 | -0.0065 ± 0.022 | -0.029 ± 0.014 | -0.0255 ± 0.019 | -0.0015 ± 0.005 | -0.0115 ± 0.011 | -0.004 ± 0.018
KF3CT:SRB | -0.003 ± 0.0042 | 0.004 ± 0.0071 | 0.008 ± 0.0099 | -0.002 | 0.0005 ± 0.0035 | -0.004 ± 0.0014 | -0.004 | -0.005 ± 0.0014 | -0.0015 ± 0.005 | -0.0065 ± 0.00071 | -0.0035 ± 0.0035 | 0.007 ± 0.0099 | -0.008 ± 0.0014 | -0.0145 ± 0.0021 | -0.004 ± 0.0071 | -0.004 ± 0.0014 | 0.0015 ± 0.0021 | -0.0015 ± 0.0064
KF3CT:TIMP-2 | -0.0315 ± 0.039 | -0.0015 ± 0.052 | -0.0125 ± 0.0035 | 0.004 ± 0.011 | -0.0105 ± 0.0078 | 0.0175 ± 0.0035 | -0.0005 ± 0.037 | -0.002 ± 0.025 | 0.022 ± 0.027 | 0.0035 ± 0.0092 | 0.01 | 0.0155 ± 0.005 | -0.033 ± 0.0042 | 0.0075 ± 0.0064 | 0.0225 ± 0.0021 | -0.0015 ± 0.005 | 0.007 ± 0.0042 | 0.008 ± 0.0071
KF3CT:uPA | 0.001 ± 0.0071 | -0.0145 ± 0.028 | -0.004 ± 0.023 | 0.01 ± 0.018 | 0.0095 ± 0.016 | -0.006 ± 0.023 | -0.0275 ± 0.043 | -0.009 ± 0.0099 | -0.0175 ± 0.019 | 0.013 ± 0.011 | 0.006 ± 0.021 | 0.0055 ± 0.022 | 0.007 ± 0.0042 | 0.006 ± 0.024 | 0.012 ± 0.016 | -0.0065 ± 0.005 | -0.0175 ± 0.019 | -0.0055 ± 0.011
MyoF:CD106/VCAM-1 | -0.0065 ± 0.0078 | -0.0095 ± 0.026 | -0.0045 ± 0.015 | -0.0125 ± 0.012 | -0.012 ± 0.023 | -0.0105 ± 0.021 | 0.0105 ± 0.033 | 0.012 ± 0.011 | -0.011 ± 0.0099 | 0.006 ± 0.013 | -0.0095 ± 0.015 | 0.013 ± 0.013 | -0.0035 ± 0.0021 | -0.0325 ± 0.016 | -0.084 ± 0.02 | -0.0175 ± 0.0021 | -0.0205 ± 0.0092 | -0.018 ± 0.016
MyoF:CXCL8/IL-8 | 0.0035 ± 0.0092 | 0.0085 ± 0.0078 | 0.009 ± 0.0099 | -0.007 ± 0.018 | -0.0025 ± 0.021 | 0.0105 ± 0.029 | -0.0355 ± 0.032 | -0.0385 ± 0.011 | -0.045 ± 0.011 | 0.0095 ± 0.037 | 0.0225 ± 0.03 | 0.03 ± 0.024 | -0.0085 ± 0.03 | -0.0885 ± 0.046 | -0.157 ± 0.016 | -0.0145 ± 0.018 | -0.004 ± 0.0042 | 0.01 ± 0.0028
MyoF:Collagen I | -0.0045 ± 0.012 | -0.0065 ± 0.0092 | 0.008 ± 0.0028 | -0.0085 ± 0.026 | -0.0155 ± 0.036 | -0.014 ± 0.041 | -0.0135 ± 0.061 | -0.024 ± 0.024 | -0.027 ± 0.031 | 0.016 ± 0.011 | -0.0025 ± 0.015 | 0.039 ± 0.014 | 0.004 ± 0.0042 | -0.0265 ± 0.026 | -0.024 ± 0.0071 | -0.0165 ± 0.0078 | -0.013 ± 0.0028 | -0.011 ± 0.0071
MyoF:Collagen III | -0.0045 ± 0.011 | -0.0205 ± 0.021 | 0.003 ± 0.02 | -0.0045 ± 0.016 | -0.0045 ± 0.011 | -0.009 ± 0.0042 | 0.0135 ± 0.0035 | 0.006 ± 0.023 | -0.035 ± 0.034 | -0.0035 ± 0.0092 | -0.005 ± 0.0071 | 0.0105 ± 0.012 | -0.008 ± 0.017 | -0.04 ± 0.031 | -0.0355 ± 0.023 | -0.006 ± 0.0071 | 0.0015 ± 0.015 | 0.008 ± 0.0057
MyoF:Collagen IV | -0.0105 ± 0.025 | -0.0185 ± 0.023 | 0.0035 ± 0.00071 | 0.0045 ± 0.018 | 0.01 ± 0.0028 | 0.0045 ± 0.018 | -0.013 ± 0.0057 | 0.0045 ± 0.011 | 0.0105 ± 0.012 | 0.0015 ± 0.0021 | 0.004 ± 0.016 | 0.0315 ± 0.04 | -0.0215 ± 0.019 | -0.0335 ± 0.036 | 0.005 ± 0.0099 | -0.0165 ± 0.0021 | -0.0125 ± 0.0035 | 0.016 ± 0.027
